The NIST ThermoML archive (doi:10.1007/s10765-005-8590-7)

Test: xn = mol fraction of the nth substance listed
Settings: Fluid (supercritical or subcritical phases), Constant-volume piezometry

N [ammonia] + O
Settings	mass density [kg/m3]
275.15 K, 5862 kPa, x1 = 0.0955	967.89
275.15 K, 7362.2 kPa, x1 = 0.0513	984.54
275.15 K, 8702.8 kPa, x1 = 0.064	979.9
275.16 K, 16098 kPa, x1 = 0.047	989.39
275.23 K, 5541.3 kPa, x1 = 0.0644	979.5
276.15 K, 5893.5 kPa, x1 = 0.0999	970.55
277.08 K, 8983.2 kPa, x1 = 0.1386	954.88
277.14 K, 5409.4 kPa, x1 = 0.1086	963.03
277.14 K, 9054.1 kPa, x1 = 0.064	979.8
277.14 K, 16926 kPa, x1 = 0.0606	986.49
277.15 K, 3335.7 kPa, x1 = 0.014	995.99
277.15 K, 4008 kPa, x1 = 0.0302	990.84
277.15 K, 5289 kPa, x1 = 0.1436	951.66
277.15 K, 7604.3 kPa, x1 = 0.0513	984.44
277.18 K, 953.2 kPa, x1 = 0.0591	975.15
277.2 K, 5773.5 kPa, x1 = 0.0644	979.4
277.21 K, 6487 kPa, x1 = 0.0955	967.76
279.08 K, 6161.2 kPa, x1 = 0.0644	979.29
279.11 K, 10157 kPa, x1 = 0.1386	954.73
279.12 K, 6995.3 kPa, x1 = 0.0999	970.36
279.12 K, 7195.5 kPa, x1 = 0.0955	967.64
279.14 K, 3259.7 kPa, x1 = 0.0582	979.2
279.15 K, 3348.5 kPa, x1 = 0.014	995.9
279.15 K, 4150.8 kPa, x1 = 0.0302	990.74
279.15 K, 6475.7 kPa, x1 = 0.1436	951.51
279.15 K, 7945.5 kPa, x1 = 0.0513	984.33
279.17 K, 9525.4 kPa, x1 = 0.064	979.68
280.14 K, 6718.7 kPa, x1 = 0.1086	962.82
281.08 K, 7983 kPa, x1 = 0.0955	967.51
281.11 K, 11383 kPa, x1 = 0.1386	954.58
281.13 K, 10065 kPa, x1 = 0.064	979.57
281.14 K, 6677.8 kPa, x1 = 0.0644	979.17
281.15 K, 3472.7 kPa, x1 = 0.014	995.8
281.15 K, 4392.5 kPa, x1 = 0.0302	990.64
281.15 K, 8371.2 kPa, x1 = 0.0513	984.22
281.19 K, 10108 kPa, x1 = 0.064	979.56
281.22 K, 1795.9 kPa, x1 = 0.0591	974.91
282.15 K, 8409.8 kPa, x1 = 0.1436	951.28
282.16 K, 8309.2 kPa, x1 = 0.0999	970.16
282.8 K, 8732.9 kPa, x1 = 0.0955	967.39
283.12 K, 4275.1 kPa, x1 = 0.0582	978.96
283.13 K, 12686 kPa, x1 = 0.1386	954.43
283.14 K, 8193.3 kPa, x1 = 0.1086	962.61
283.15 K, 3692.3 kPa, x1 = 0.014	995.7
283.15 K, 4731.8 kPa, x1 = 0.0302	990.53
283.15 K, 8198.4 kPa, x1 = 0.1086	962.61
283.15 K, 8879.5 kPa, x1 = 0.0513	984.1
283.15 K, 10706 kPa, x1 = 0.064	979.44
283.17 K, 7273.4 kPa, x1 = 0.0644	979.05
285.09 K, 7901.4 kPa, x1 = 0.0644	978.93
285.15 K, 4011.8 kPa, x1 = 0.014	995.59
285.15 K, 5171.1 kPa, x1 = 0.0302	990.41
285.15 K, 9527 kPa, x1 = 0.0513	983.98
285.15 K, 10464 kPa, x1 = 0.1436	951.05
285.15 K, 10466 kPa, x1 = 0.1436	951.05
285.16 K, 11435 kPa, x1 = 0.064	979.32
285.17 K, 2999.7 kPa, x1 = 0.0591	974.66
285.17 K, 14062 kPa, x1 = 0.1436	954.28
286.14 K, 9868.4 kPa, x1 = 0.1086	962.4
287.06 K, 10858 kPa, x1 = 0.0955	967.09
287.13 K, 5735.3 kPa, x1 = 0.0582	978.69
287.13 K, 12206 kPa, x1 = 0.064	979.19
287.15 K, 4434.3 kPa, x1 = 0.014	995.47
287.15 K, 10223 kPa, x1 = 0.0513	983.85
287.17 K, 8642.4 kPa, x1 = 0.0644	978.79
288.13 K, 11389 kPa, x1 = 0.0999	969.74
288.14 K, 11389 kPa, x1 = 0.0999	969.74
288.15 K, 12628 kPa, x1 = 0.1436	950.81
289.04 K, 4499.1 kPa, x1 = 0.0591	974.4
289.14 K, 6552.7 kPa, x1 = 0.0582	978.56
289.15 K, 4946.6 kPa, x1 = 0.014	995.35
289.15 K, 6317.7 kPa, x1 = 0.0302	990.16
289.15 K, 11020 kPa, x1 = 0.0513	983.72
289.15 K, 11640 kPa, x1 = 0.1386	962.18
289.15 K, 13114 kPa, x1 = 0.064	979.06
289.21 K, 9475.8 kPa, x1 = 0.0644	978.66
291.12 K, 10278 kPa, x1 = 0.0644	978.53
291.13 K, 7445.3 kPa, x1 = 0.0582	978.41
291.13 K, 13172 kPa, x1 = 0.0999	969.52
291.15 K, 5561.2 kPa, x1 = 0.014	995.22
291.15 K, 11884 kPa, x1 = 0.0513	983.58
291.15 K, 14080 kPa, x1 = 0.064	978.92
291.16 K, 13203 kPa, x1 = 0.0955	966.79
292.14 K, 7407.7 kPa, x1 = 0.0302	989.96
292.15 K, 7429.1 kPa, x1 = 0.0302	989.96
293.12 K, 14421 kPa, x1 = 0.0955	966.65
293.13 K, 11186 kPa, x1 = 0.0644	978.39
293.14 K, 8423.6 kPa, x1 = 0.0582	978.27
293.15 K, 6247.6 kPa, x1 = 0.014	995.09
293.16 K, 15112 kPa, x1 = 0.064	978.78
293.22 K, 6453.9 kPa, x1 = 0.0591	974.1
294.15 K, 15125 kPa, x1 = 0.0999	969.3
295.11 K, 8696.2 kPa, x1 = 0.0302	989.75
295.12 K, 9437.2 kPa, x1 = 0.0582	978.12
295.15 K, 7035 kPa, x1 = 0.014	994.95
295.15 K, 12162 kPa, x1 = 0.0644	978.25
295.15 K, 13851 kPa, x1 = 0.0513	983.31
297.15 K, 7909.9 kPa, x1 = 0.014	994.81
297.15 K, 10576 kPa, x1 = 0.0582	977.97
297.21 K, 13180 kPa, x1 = 0.0644	978.11
297.22 K, 8637.1 kPa, x1 = 0.0591	973.79
298.16 K, 10232 kPa, x1 = 0.0302	989.53
299.08 K, 11729 kPa, x1 = 0.0582	977.83
299.15 K, 8841.2 kPa, x1 = 0.014	994.66
299.19 K, 14184 kPa, x1 = 0.0644	977.97
301.02 K, 10950 kPa, x1 = 0.0591	973.5
301.11 K, 15142 kPa, x1 = 0.0644	977.84
301.15 K, 9880.3 kPa, x1 = 0.014	994.51
303.15 K, 10919 kPa, x1 = 0.014	994.37
303.2 K, 14357 kPa, x1 = 0.0582	977.51
305.11 K, 13746 kPa, x1 = 0.0591	973.17
305.15 K, 12107 kPa, x1 = 0.014	994.21
305.21 K, 15774 kPa, x1 = 0.0582	977.35
309.15 K, 14684 kPa, x1 = 0.014	993.9
